Among the data in patent US20220402948A1, “EGFR INHIBITOR, COMPOSITION AND PREPARATION METHOD THEREFOR” (BETTA PHARMACEUTICALS CO., LTD., priority 2019, published 2022) are IC50 and GI50 values, retold here.

Assay [1] addresses EGFRΔ19del/T790M/C797S (Homo sapiens, UniProt P00533, T790M/C797S, form not given). In words: EGFR Δ19del/T790M/C797S kinase test (mobility variation analysis, Caliper EZ Reader). It counts as biochemical. The conditions noted are these: kinase enzymatic activity, Table 1. As to the method:
(§1) Mobility variation analysis was performed to determine the affinity of the compound for EGFRΔ19del/T790M/C797S, EGFR WT and IGF1R. The enzymatic reaction scheme is as follows:
(§2) 1. Prepare 1*kinase buffer as follows.
(§3) 3. […] Prepare 2.5-fold final concentration of kinase solution with 1×Kinase buffer.
(§4) 4. Add 10 μL of 2.5-fold final concentration of kinase solution to the compound well and the positive control well; add 10 μL of 1×Kinase buffer to the negative control well.
(§5) 5. Centrifuge at 1000 rpm for 30 s, shake the reaction plate for well mixing, and then incubate at room temperature for 10 minutes.
(§6) 6. Prepare a mixture of ATP and Kinase substrate at 5/3-fold final concentration with 1×Kinase buffer.
(§7) 8. Centrifuge the 384-well plate at 1000 rpm for 30 s, shake it well and then incubate it at room temperature for corresponding time.
(§8) 9. Add 30 μL of stop detection solution to stop the kinase reaction, centrifuge at 1000 rpm for 30 s, and shake it well.
(§9) 10. Read conversion rate with Caliper EZ Reader.
(§10) % Inhibition=((Conversion%_max−Conversion%_sample)/(Conversion%_max−Conversion%_min))*100
(§11) Wherein: Conversion%_sample is the sample conversion rate reading; Conversion%_min: Mean value of negative control wells, representing the conversion rate reading of wells without enzymatic activity; Conversion%_max: Mean value of positive control wells, representing the conversion rate reading of wells without compound inhibition.
(§12) The dose-effect curve was fitted with concentration log value as X-axis and percentage inhibition rate as Y-axis. GraphPad Prism 5 analysis software was used for fitting Log (inhibitor) vs. response—Variable slope with the dose-effect curve to obtain IC50 value of enzymatic activity for each compound.
(§13) The calculation formula is as Y-Bottom+(Top-Bottom)/(1+10^((Log IC50−X)*HillSlope)).

Assay [2] deals with A431. Kind of assay: A431 cell proliferation assay (CellTiter Glo, 72 hours). The conditions noted are these: cell proliferation, A431, 72 hours, Table 2, read-out: A431 IC50. It counts as cell-based. On the procedure: (§14) Cell line: Ba/F3 cells with EGFR Δ19del/T790M/C797S mutation gene stably overexpressed named Ba/F3-Δ119del/T90M/C797S, and A431 and Ba/F3-EGFR wild-type cell line.
RPMI 1640 and 10% FBS and 1% PS; DMEM and 10% FBS and 1% PS.
a) Dilute the test compound (20 mM stock solution) to 10 mM with 100% DMSO as the starting concentration, and then serially dilute 3 times with a “9+0” concentration in 96-well dilution plate (Cat #P-05525, Labcyte);
b) Dilute compound solution thereof to 1:100 (1:20 for comparative compound 1 and compounds 1-38) in medium to prepare 10-fold working solution;
(§15) a) Centrifuge the growth cells in logarithmic phase at 1000 rpm for 5 minutes, resuspend the cells in culture medium, and then count the cells;
(§16) b) Inoculate the cells into a 96-well cell culture plate with a density of 2000 cells/well;
a) Compounds prepared at step 2 were added to cell plate with 15 μl per well, the final concentrations were 1000, 333, 111.1, 37, 12.3, 4.1, 1.4, 0.5, 0.2 and 0 nM, and the final concentration of DMSO was 0.1%. The blank control well was a culture medium (0.1% DMSO) (the blank control well of comparative compound 1 and compounds 1-38 was a culture medium (0.5% DMSO).
(§17) b) Incubate cells in an incubator for another 72 hours.
(§18) a) Take out the 96-well cell culture plate and add 50 μl CTG reagent (CellTiter Glo kit, promega, Cat #G7573);
(§19) b) Shake the plate for 2 minutes and let cool at room temperature for 10 minutes;
(§20) c) Read luminous signal value with PerkinElmer reader,
(§21) Analysis of Experimental Data
(§22) The data were analyzed by GraphPad Prism 6.0 software to obtain the fitting curve of compound activity.
Fitting compound IC50 from nonlinear regression equation:
(§23) Y=Min+(Max−Min)/(1+10^((Log IC50−X)*slope));
(§24) X: Logarithm of compound concentration; Y: luminous signal.
On the technique in general: ATP-based viability assays read luminescence as a measure of living cells.

Assay [3] addresses Ba/F3 cells with EGFR Δ19del/T790M/C797S mutation gene stably overexpressed (Homo sapiens, UniProt P00533, T790M/C797S, cells depend on it, form not given). In words: Ba/F3-Δ19del/T790M/C797S cell proliferation assay (CellTiter Glo, 72 hours). The conditions noted are these: Table 2, read-out: EGFR Δ19del/T790M/C797S IC50. Format: cell-based. On the procedure:
as §14, §15, §16, §17, §18, §19, §20, §21, §22, §23, §24

For assay [4], the target named is IGF1R (Homo sapiens, UniProt P08069). Kind of assay: IGF1R kinase test (mobility variation analysis, Caliper EZ Reader). Format: biochemical. The conditions noted are these: kinase enzymatic activity, Table 1; read-out: EGFR IGF1R IC50. On the procedure:
as §1, §2
2. Preparation of compound concentration gradient: The test compound was tested with an initial concentration of 3000 nM (300 nM for some triple mutations and 100 nM for others), diluted in a 384 source plate (96-well plate for comparative compound 1 and compounds 1-38) to a 100% DMSO solution with 100-fold final concentration, and the compound is 3-fold diluted with Precision to 10 concentrations. A dispenser Echo 550 was used to transfer 250 nL 100-fold final concentration of the compound to the target plate OptiPlate-384F.
3. Prepare 2.5-fold final concentration (5-fold for comparative compound 1 and compounds 1-38) of kinase solution with 1×Kinase buffer. Following steps should also be carried out for comparative compound 1 and compounds 1-38: Add each prepared intermediate dilution compounds to the compound wells of 384-well plate respectively, and test the repeated wells of each concentration; add 5% DMSO of 5 plates into the negative control well and the positive control well respectively. Prepare 2.5-fold final concentration of kinase solution with 1×Kinase buffer.
as §4, §5, §6
7. Add 15 μL mixture of 5/3-fold (2.5-fold for comparative compound 1 and compounds 1-38) final concentration of ATP and substrate to start reaction.
as §7, §8, §9, §10, §11, §12, §13

The target in assay [5] is EGFR WT (Homo sapiens, UniProt P00533). In words: EGFR WT kinase test (mobility variation analysis, Caliper EZ Reader). The conditions noted are these: kinase enzymatic activity, Table 1. Format: biochemical. As to the method:
as §1, §2, §3, §4, §5, §6, §7, §8, §9, §10, §11, §12, §13

Where two headings read alike, the source gives them in different places. A value given as a limit tells only on which side of the number the result lay.

Chain of IGF1R (P08069 31-1367, species assumed): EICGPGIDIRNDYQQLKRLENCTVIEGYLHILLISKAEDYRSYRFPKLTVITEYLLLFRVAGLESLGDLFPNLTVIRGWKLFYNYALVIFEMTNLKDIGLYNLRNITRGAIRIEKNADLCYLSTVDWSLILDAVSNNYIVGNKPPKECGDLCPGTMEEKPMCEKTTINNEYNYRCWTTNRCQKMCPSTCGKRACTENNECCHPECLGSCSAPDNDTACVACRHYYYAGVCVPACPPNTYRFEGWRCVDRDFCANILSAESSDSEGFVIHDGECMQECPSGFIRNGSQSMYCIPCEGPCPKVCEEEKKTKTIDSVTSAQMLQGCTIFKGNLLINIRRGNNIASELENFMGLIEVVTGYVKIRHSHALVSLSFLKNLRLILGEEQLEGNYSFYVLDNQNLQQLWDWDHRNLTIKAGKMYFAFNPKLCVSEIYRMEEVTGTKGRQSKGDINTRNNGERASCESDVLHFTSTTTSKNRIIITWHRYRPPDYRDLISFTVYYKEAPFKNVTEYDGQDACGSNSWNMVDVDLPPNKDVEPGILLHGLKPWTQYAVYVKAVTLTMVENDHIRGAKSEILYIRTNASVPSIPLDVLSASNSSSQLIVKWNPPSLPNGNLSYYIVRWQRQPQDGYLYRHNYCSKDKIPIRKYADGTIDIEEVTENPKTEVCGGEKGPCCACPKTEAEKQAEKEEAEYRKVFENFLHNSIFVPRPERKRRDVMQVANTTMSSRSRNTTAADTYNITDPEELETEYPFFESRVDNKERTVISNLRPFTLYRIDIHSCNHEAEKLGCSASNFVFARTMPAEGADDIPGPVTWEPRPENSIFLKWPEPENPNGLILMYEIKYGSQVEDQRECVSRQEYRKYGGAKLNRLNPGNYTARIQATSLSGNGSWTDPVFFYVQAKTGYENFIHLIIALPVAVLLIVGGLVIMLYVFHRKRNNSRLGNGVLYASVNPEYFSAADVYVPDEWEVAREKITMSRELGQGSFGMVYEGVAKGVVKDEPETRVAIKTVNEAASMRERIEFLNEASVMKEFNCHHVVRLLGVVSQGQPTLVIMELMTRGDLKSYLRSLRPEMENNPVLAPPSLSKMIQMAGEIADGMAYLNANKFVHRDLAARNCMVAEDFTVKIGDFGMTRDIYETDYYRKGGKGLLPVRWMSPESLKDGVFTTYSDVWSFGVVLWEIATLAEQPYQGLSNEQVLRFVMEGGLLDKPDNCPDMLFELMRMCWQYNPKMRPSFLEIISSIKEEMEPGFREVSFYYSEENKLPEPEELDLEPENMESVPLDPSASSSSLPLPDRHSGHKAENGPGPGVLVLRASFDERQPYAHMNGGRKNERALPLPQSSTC

Broadly, the IC50 is the concentration that gives 50% inhibition. As for `CCc1cc(Nc2ncc(Cl)c(Nc3ccc(-c4ccccc4)cc3P(C)(C)=O)n2)c(OC)cc1N1CCC(N2CCN(C)CC2)CC1` [Compound 2, (4-((5-Chloro-2-((5-ethyl-2-methoxy-4-(4-(4-methylpiperazin-1-yl)piperidin-1-yl)phenyl)amino)pyrimidin-4-yl)amino)-[1,1′-biphenyl]-3-yl)dimethylphosphine oxide], the IC50 in assay [1] amounted to 0.7 nM; in assay [2] (Homo sapiens, A-431, 72 h) it was 812 nM; in assay [4], 150 nM. Besides, in assay [3], the GI50 was 21.8 nM.
Consider `CCc1cc(Nc2ncc(Cl)c(Nc3ccc(-c4cnn5c4OCCC5)cc3P(C)(C)=O)n2)c(OC)cc1N1CCC(N2CCN(C)CC2)CC1` [Compound 7, (2-((5-Chloro-2-((5-ethyl-2-methoxy-4-(4-(4-methylpiperazin-1-yl)piperidin-1-yl)phenyl)amino)pyrimidin-4-yl)amino)-5-(6,7-dihydro-5H-pyrazolo[5,1-b][1,3]nitrox-3-yl)phenyl)dimethylphosphine oxide], for which the IC50 in assay [1] came to 0.5 nM; in assay [4], 187 nM. In addition, the GI50 in assay [3] was found to be 46.2 nM.
As for `CCc1cc(Nc2ncc(Cl)c(Nc3ccc(-c4cncs4)cc3P(C)(C)=O)n2)c(OC)cc1N1CCC(N2CCN(C)CC2)CC1` [Compound 15, (2-((5-Chloro-2-((5-ethyl-2-methoxy-4-(4-(4-methylpiperazin-1-yl)piperidin-1-yl)phenyl)amino)pyrimidin-4-yl)amino)-5-(thiazol-5-yl)phenyl)dimethylphosphine oxide], the IC50 in assay [1] worked out at 0.3 nM; in assay [4] it was 66.5 nM. For the same compound, in assay [3], the GI50 worked out at 16.1 nM.
Take `CCc1cc(Nc2ncc(Cl)c(Nc3ccc(-c4cnn5cnccc45)cc3P(C)(C)=O)n2)c(OC)cc1N1CCC(N2CCN(C)CC2)CC1` [Compound 23, (2-((5-Chloro-2-((5-ethyl-2-methoxy-4-(4-(4-methylpiperazin-1-yl)piperidin-1-yl)phenyl)amino)pyrimidin-4-yl)amino)-5-(pyrazolo[1,5-c]pyrimidin-3-yl)phenyl)dimethylphosphine oxide]: the results for the IC50 in assay [1], in assay [4] and in assay [5] were 0.5 nM, 261 nM and 18.9 nM, respectively. The GI50 in assay [3] came out at 42.9 nM.
On the same counts, the results for `CCc1cc(Nc2ncc(Cl)c(Nc3ccc(-c4cnc(C)nc4)cc3P(C)(C)=O)n2)c(OC)cc1N1CCC(N2CCN(C)CC2)CC1` [Compound 24, (2-((5-Chloro-2-((5-ethyl-2-methoxy-4-(4-(4-methylpiperazin-1-yl)piperidin-1-yl)phenyl)amino)pyrimidin-4-yl)amino)-5-(2-methylpyrimidin-5-yl)phenyl)dimethylphosphine oxide] are 0.7 nM, 264 nM, 66.9 nM and 44 nM.
Taken in the same sequence, the figures for `CCc1cc(Nc2ncc(Cl)c(Nc3ccc(-c4nn(C)cc4C#N)cc3P(C)(C)=O)n2)c(OC)cc1N1CCC(N2CCN(C)CC2)CC1` [Compound 57] were 0.4 nM, 196 nM, 13.9 nM and 40.8 nM.
With `CCc1cc(Nc2ncc(Br)c(Nc3ccc(-c4nccnc4OC)cc3P(C)(C)=O)n2)c(OC)cc1N1CCC(N2CCN(C)CC2)CC1` [Compound 72, (2-((5-Bromo-2-((5-ethyl-2-methoxy-4-(4-(4-methylpiperazin-1-yl)piperidin-1-yl)phenyl)(amino)amino]pyrimidin-4-yl)amino)-5-(3-methoxypyrazin-2-yl)phenyl)dimethylphosphine oxide], the IC50 in assay [2] (Homo sapiens, A-431, 72 h) was over 10000 nM. Further, in assay [3], the GI50 stood at 29.4 nM.
As to `CCc1cc(Nc2ncc(Br)c(Nc3ccc(-c4ccc(N(C)C)nn4)cc3P(C)(C)=O)n2)c(OC)cc1N1CCC(N2CCN(C)CC2)CC1` [Compound 77, (2-((5-Bromo-2-((5-ethyl-2-methoxy-4-(4-(4-methylpiperazin-1-yl)piperidin-1-yl)phenyl)amino]pyrimidin-4-yl)amino)-5-(6-(dimethylamino)pyridazin-3-yl)phenyl)dimethylphosphine oxide], in assay [2], the IC50 was over 10000 nM. The GI50 in assay [3] was determined as 27.2 nM.
Take `CCn1cc(-c2cc(Nc3ncc(Br)c(Nc4ccc(-c5cccc6cc[nH]c56)cc4P(C)(C)=O)n3)c(OC)cc2N2CCC(N3CCN(C)CC3)CC2)cn1` [Compound K-091, (2-((5-Bromo-2-((5-(1-ethyl-1H-pyrazol-4-yl)-2-methoxy-4-(4-(4-methylpiperazin-1-yl)piperidin-1-yl)phenyl)amino)pyrimidin-4-yl)amino)-5-(1H-indol-7-yl)phenyl)dimethylphosphine oxide]: the IC50 in assay [1] is 0.8 nM; in assay [4] it was 279 nM; in assay [5], 38.8 nM.
`CCc1cc(Nc2ncc(Cl)c(Nc3ccc(-c4ccc[nH]c4=O)cc3P(C)(C)=O)n2)c(OC)cc1N1CCC(N2CCN(C)CC2)CC1` [Compound K-092, 3-(4-((5-Chloro-2-((5-ethyl-2-methoxy-4-(4-(4-methylpiperazin-1-yl)piperidin-1-yl)phenyl)amino)pyrimidin-4-yl)amino)-3-(dimethylphosphoryl)phenyl)pyridin-2(1H)-one]: the values for the IC50 in assay [1], in assay [4] and in assay [5] were 0.8 nM, 427 nM and 83.6 nM, respectively.
Consider `COc1cc(N2CCC(N3CCCCC3)CC2)c(-c2cnn(C)c2)cc1Nc1ncc(Br)c(Nc2ccc(-c3ccccc3)cc2P(C)(C)=O)n1` [Compound K-100], for which the IC50 in assay [2] (Homo sapiens, A-431, 72 h) was found to be 99.6 nM. Further, the GI50 in assay [3] was determined as 2.1 nM.
For `CCc1cc(Nc2ncc(Br)c(Nc3ccc(-c4cnn(C(F)F)n4)cc3P(C)(C)=O)n2)c(OC)cc1N1CCC(N2CCN(C)CC2)CC1` [Compound K-106, (2-((5-Bromo-2-((5-ethyl-2-methoxy-4-(4-(4-methylpiperazin-1-yl)piperidin-1-yl)phenyl)amino)pyrimidin-4-yl)amino)-5-(2-(difluoromethyl)-2H-1,2,3-triazol-4-yl)phenyl)dimethylphosphine oxide], the figures for the IC50 in assay [1], in assay [4] and in assay [5] were 0.5 nM, 56 nM and 17 nM, respectively.
On the same counts, the results for “(2-((5-Chloro-2-((5-ethyl-2-methoxy-4-(4-(4-methylpiperazin-1-yl)piperidin-1-yl)phenyl)amino)pyrimidin-4-yl)amino)-5-(3-ethoxy-5-methylisoxazol-4-yl)phenyl)dimethylphosphine oxide [Compound K-061]” are 1.6 nM, 886 nM and 44 nM.
